From PubChem BioAssay (NCI)
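Interpolation was linear, between the two tested concentrations surrounding the appropriate level; five concentrations were tested over 48 hours in 96-well plates. At the TGI there is no net growth.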

Experiments:
Experiment in all cases: NCI-60 cell line screen, 48 h
ACHN renal = tested on: ACHN renal
RXF 393 renal = tested on: RXF 393 renal
DU-145 prostate = tested on: DU-145 prostate
OVCAR-8 ovarian = tested on: OVCAR-8 ovarian
SN12C renal = tested on: SN12C renal
OVCAR-4 ovarian = tested on: OVCAR-4 ovarian
MOLT-4 leukemia = tested on: MOLT-4 leukemia
SF-295 CNS = tested on: SF-295 CNS
NCI-H23 lung = tested on: NCI-H23 lung
HCC-2998 colon = tested on: HCC-2998 colon
SNB-19 CNS = tested on: SNB-19 CNS
MDA-MB-231 breast = tested on: MDA-MB-231 breast
SK-MEL-5 melanoma = tested on: SK-MEL-5 melanoma
SW-620 colon = tested on: SW-620 colon
MDA-N = tested on: MDA-N
CCRF-CEM leukemia = tested on: CCRF-CEM leukemia
OVCAR-5 ovarian = tested on: OVCAR-5 ovarian
HL-60(TB) leukemia = tested on: HL-60(TB) leukemia
UO-31 renal = tested on: UO-31 renal
HOP-62 NSCLC = tested on: HOP-62 NSCLC
UACC-257 melanoma = tested on: UACC-257 melanoma
HS 578T breast = tested on: HS 578T breast
LOX IMVI melanoma = tested on: LOX IMVI melanoma
M14 melanoma = tested on: M14 melanoma
SF-539 CNS = tested on: SF-539 CNS
MDA-MB-435 = tested on: MDA-MB-435
BT-549 breast = tested on: BT-549 breast
MALME-3M melanoma = tested on: MALME-3M melanoma
RPMI-8226 leukemia = tested on: RPMI-8226 leukemia
SNB-75 CNS = tested on: SNB-75 CNS
NCI-H226 lung = tested on: NCI-H226 lung
786-0 renal = tested on: 786-0 renal
IGROV1 ovarian = tested on: IGROV1 ovarian
EKVX NSCLC = tested on: EKVX NSCLC
HCT-15 colon = tested on: HCT-15 colon
CAKI-1 renal = tested on: CAKI-1 renal
SK-OV-3 ovarian = tested on: SK-OV-3 ovarian
SK-MEL-2 melanoma = tested on: SK-MEL-2 melanoma
T-47D breast = tested on: T-47D breast
NCI/ADR-RES ovarian = tested on: NCI/ADR-RES ovarian
K-562 leukemia = tested on: K-562 leukemia
COLO 205 colon = tested on: COLO 205 colon
NCI-H460 lung = tested on: NCI-H460 lung
SF-268 CNS = tested on: SF-268 CNS
TK-10 renal = tested on: TK-10 renal
A549 NSCLC = tested on: A549 NSCLC
PC-3 prostate = tested on: PC-3 prostate
HT29 colon = tested on: HT29 colon
OVCAR-3 ovarian = tested on: OVCAR-3 ovarian
U251 CNS = tested on: U251 CNS
NCI-H522 lung = tested on: NCI-H522 lung
HOP-92 NSCLC = tested on: HOP-92 NSCLC
A498 renal = tested on: A498 renal
UACC-62 melanoma = tested on: UACC-62 melanoma
KM12 colon = tested on: KM12 colon
SK-MEL-28 melanoma = tested on: SK-MEL-28 melanoma
SR leukemia = tested on: SR leukemia
HCT-116 colon = tested on: HCT-116 colon
MCF7 breast = tested on: MCF7 breast

Structure (SMILES): COc1cc2oc3cc(=O)cc4oc(-c5ccccc5)cc(c2c2c1CCC(c1ccccc1)O2)c43 (stereo not drawn)
- TGI (ACHN renal): 61.9 µM
- TGI (RXF 393 renal): > 100 µM
- TGI (DU-145 prostate): > 100 µM
- TGI (OVCAR-8 ovarian): > 100 µM
- TGI (SN12C renal): > 100 µM
- TGI (OVCAR-4 ovarian): > 100 µM
- TGI (MOLT-4 leukemia): > 100 µM
- TGI (SF-295 CNS): 54.9 µM
- TGI (NCI-H23 lung): > 100 µM
- TGI (HCC-2998 colon): > 100 µM
- TGI (SNB-19 CNS): > 100 µM
- TGI (MDA-MB-231 breast): 68.1 µM
- TGI (SK-MEL-5 melanoma): 65.1 µM
- TGI (SW-620 colon): > 100 µM
- TGI (MDA-N): > 100 µM
- TGI (CCRF-CEM leukemia): > 100 µM
- TGI (OVCAR-5 ovarian): > 100 µM
- TGI (HL-60(TB) leukemia): 62.7 µM
- TGI (UO-31 renal): > 100 µM
- TGI (HOP-62 NSCLC): > 100 µM
- TGI (UACC-257 melanoma): 69 µM
- TGI (HS 578T breast): > 100 µM
- TGI (LOX IMVI melanoma): > 100 µM
- TGI (M14 melanoma): 33.4 µM
- TGI (SF-539 CNS): > 100 µM
- TGI (MDA-MB-435): 56 µM
- TGI (BT-549 breast): > 100 µM
- TGI (MALME-3M melanoma): > 100 µM
- TGI (RPMI-8226 leukemia): 20.9 µM
- TGI (SNB-75 CNS): > 100 µM
- TGI (NCI-H226 lung): > 100 µM
- TGI (786-0 renal): > 100 µM
- TGI (IGROV1 ovarian): > 100 µM
- TGI (EKVX NSCLC): > 100 µM
- TGI (HCT-15 colon): 91.9 µM
- TGI (CAKI-1 renal): > 100 µM
- TGI (SK-OV-3 ovarian): > 100 µM
- TGI (SK-MEL-2 melanoma): > 100 µM
- TGI (T-47D breast): 54.8 µM
- TGI (NCI/ADR-RES ovarian): > 100 µM
- TGI (K-562 leukemia): 83.9 µM
- TGI (COLO 205 colon): 46.1 µM
- TGI (NCI-H460 lung): > 100 µM
- TGI (SF-268 CNS): > 100 µM
- TGI (TK-10 renal): 83.4 µM
- TGI (A549 NSCLC): > 100 µM
- TGI (PC-3 prostate): > 100 µM
- TGI (HT29 colon): 66.2 µM
- TGI (OVCAR-3 ovarian): 77.6 µM
- TGI (U251 CNS): > 100 µM
- TGI (NCI-H522 lung): > 100 µM
- TGI (HOP-92 NSCLC): > 100 µM
- TGI (A498 renal): > 100 µM
- TGI (UACC-62 melanoma): > 100 µM
- TGI (KM12 colon): 65.5 µM
- TGI (SK-MEL-28 melanoma): > 100 µM
- TGI (SR leukemia): > 100 µM
- TGI (HCT-116 colon): > 100 µM
- TGI (MCF7 breast): 59.2 µM

Structure (SMILES): COc1cc(OC)nc(-n2c(N)c(C#N)c3ccc([N+](=O)[O-])cc3c2=O)n1
- TGI (ACHN renal): > 100 µM
- TGI (DU-145 prostate): > 100 µM
- TGI (OVCAR-8 ovarian): > 100 µM
- TGI (SN12C renal): > 100 µM
- TGI (OVCAR-4 ovarian): > 100 µM
- TGI (MOLT-4 leukemia): > 100 µM
- TGI (SF-295 CNS): > 100 µM
- TGI (NCI-H23 lung): > 100 µM
- TGI (HCC-2998 colon): > 100 µM
- TGI (SNB-19 CNS): > 100 µM
- TGI (MDA-MB-231 breast): > 100 µM
- TGI (SK-MEL-5 melanoma): > 100 µM
- TGI (SW-620 colon): > 100 µM
- TGI (MDA-N): > 100 µM
- TGI (CCRF-CEM leukemia): > 100 µM
- TGI (OVCAR-5 ovarian): > 100 µM
- TGI (HL-60(TB) leukemia): > 100 µM
- TGI (UO-31 renal): > 100 µM
- TGI (HOP-62 NSCLC): > 100 µM
- TGI (UACC-257 melanoma): > 100 µM
- TGI (HS 578T breast): > 100 µM
- TGI (LOX IMVI melanoma): > 100 µM
- TGI (M14 melanoma): > 100 µM
- TGI (SF-539 CNS): > 100 µM
- TGI (MDA-MB-435): > 100 µM
- TGI (BT-549 breast): > 100 µM
- TGI (RPMI-8226 leukemia): > 100 µM
- TGI (SNB-75 CNS): > 100 µM
- TGI (786-0 renal): > 100 µM
- TGI (IGROV1 ovarian): > 100 µM
- TGI (EKVX NSCLC): > 100 µM
- TGI (HCT-15 colon): > 100 µM
- TGI (CAKI-1 renal): > 100 µM
- TGI (SK-MEL-2 melanoma): > 100 µM
- TGI (T-47D breast): > 100 µM
- TGI (NCI/ADR-RES ovarian): > 100 µM
- TGI (COLO 205 colon): > 100 µM
- TGI (NCI-H460 lung): > 100 µM
- TGI (SF-268 CNS): > 100 µM
- TGI (TK-10 renal): > 100 µM
- TGI (A549 NSCLC): > 100 µM
- TGI (PC-3 prostate): > 100 µM
- TGI (HT29 colon): > 100 µM
- TGI (OVCAR-3 ovarian): > 100 µM
- TGI (U251 CNS): > 100 µM
- TGI (NCI-H522 lung): 55.4 µM
- TGI (HOP-92 NSCLC): > 100 µM
- TGI (A498 renal): > 100 µM
- TGI (UACC-62 melanoma): > 100 µM
- TGI (KM12 colon): > 100 µM
- TGI (SK-MEL-28 melanoma): > 100 µM
- TGI (SR leukemia): > 100 µM
- TGI (HCT-116 colon): > 100 µM
- TGI (MCF7 breast): > 100 µM
